Test results: ChEMBL document CHEMBL3991601, “The target landscape of clinical kinase drugs” (Science, 2017)
The source made the active and inactive calls.

Assays:
[1] = target: Serine/threonine-protein kinase/endoribonuclease IRE2 (Homo sapiens, UniProt Q76MJ5)
[2] = target: T1, Serine/threonine-protein kinase LATS1 (Homo sapiens, UniProt O95835)
T1 sequence (O95835 whole entry): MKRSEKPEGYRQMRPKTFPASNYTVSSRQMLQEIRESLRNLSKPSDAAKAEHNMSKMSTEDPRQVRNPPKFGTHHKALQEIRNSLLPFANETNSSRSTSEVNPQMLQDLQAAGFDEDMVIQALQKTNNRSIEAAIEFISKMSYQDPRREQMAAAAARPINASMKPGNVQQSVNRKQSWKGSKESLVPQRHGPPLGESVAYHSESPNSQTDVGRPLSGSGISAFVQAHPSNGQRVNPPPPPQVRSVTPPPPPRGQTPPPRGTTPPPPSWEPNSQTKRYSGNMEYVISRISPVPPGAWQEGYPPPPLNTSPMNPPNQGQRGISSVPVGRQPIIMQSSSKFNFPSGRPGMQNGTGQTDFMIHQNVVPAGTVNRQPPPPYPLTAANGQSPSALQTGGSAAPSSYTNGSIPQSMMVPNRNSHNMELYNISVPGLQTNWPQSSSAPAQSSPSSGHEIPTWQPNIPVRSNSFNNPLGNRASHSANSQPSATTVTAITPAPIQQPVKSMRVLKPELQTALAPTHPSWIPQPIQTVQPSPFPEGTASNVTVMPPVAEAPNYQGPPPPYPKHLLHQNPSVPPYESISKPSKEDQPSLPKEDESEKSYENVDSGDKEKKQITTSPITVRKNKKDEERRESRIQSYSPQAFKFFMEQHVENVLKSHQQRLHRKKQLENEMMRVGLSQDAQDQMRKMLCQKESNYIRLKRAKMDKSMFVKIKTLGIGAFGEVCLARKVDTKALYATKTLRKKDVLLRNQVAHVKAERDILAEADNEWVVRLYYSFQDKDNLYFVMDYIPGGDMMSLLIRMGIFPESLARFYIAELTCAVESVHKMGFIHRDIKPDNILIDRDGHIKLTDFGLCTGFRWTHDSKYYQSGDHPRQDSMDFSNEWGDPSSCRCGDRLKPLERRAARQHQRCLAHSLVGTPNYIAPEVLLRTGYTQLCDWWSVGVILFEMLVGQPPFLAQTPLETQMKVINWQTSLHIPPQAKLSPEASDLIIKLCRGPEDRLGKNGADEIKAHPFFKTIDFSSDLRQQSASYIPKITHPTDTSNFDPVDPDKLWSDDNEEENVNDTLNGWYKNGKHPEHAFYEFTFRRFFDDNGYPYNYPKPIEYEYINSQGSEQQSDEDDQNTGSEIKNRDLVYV

[3] = target: Receptor-interacting serine/threonine-protein kinase 3 (Homo sapiens, UniProt Q9Y572)
[4] = target: T2, Aurora kinase A (Homo sapiens, UniProt O14965)
T2 sequence (O14965 whole entry): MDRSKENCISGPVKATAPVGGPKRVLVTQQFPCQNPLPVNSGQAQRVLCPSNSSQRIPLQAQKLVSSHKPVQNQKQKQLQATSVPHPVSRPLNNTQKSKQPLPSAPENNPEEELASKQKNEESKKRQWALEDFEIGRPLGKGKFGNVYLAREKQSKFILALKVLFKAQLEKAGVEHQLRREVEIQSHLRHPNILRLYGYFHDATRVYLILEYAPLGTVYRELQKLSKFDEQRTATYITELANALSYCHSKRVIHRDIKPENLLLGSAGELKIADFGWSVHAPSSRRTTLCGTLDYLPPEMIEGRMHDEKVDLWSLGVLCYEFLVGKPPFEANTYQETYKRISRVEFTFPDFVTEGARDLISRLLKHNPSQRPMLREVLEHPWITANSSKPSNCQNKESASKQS

[5] = target: Bone morphogenetic protein receptor type-1A (Homo sapiens, UniProt P36894)
[6] = target: Mitogen-activated protein kinase 1 (Homo sapiens, UniProt P28482)
[7] = target: T3, ADP/ATP translocase 2 (Homo sapiens, UniProt P05141)
T3 sequence (P05141 whole entry): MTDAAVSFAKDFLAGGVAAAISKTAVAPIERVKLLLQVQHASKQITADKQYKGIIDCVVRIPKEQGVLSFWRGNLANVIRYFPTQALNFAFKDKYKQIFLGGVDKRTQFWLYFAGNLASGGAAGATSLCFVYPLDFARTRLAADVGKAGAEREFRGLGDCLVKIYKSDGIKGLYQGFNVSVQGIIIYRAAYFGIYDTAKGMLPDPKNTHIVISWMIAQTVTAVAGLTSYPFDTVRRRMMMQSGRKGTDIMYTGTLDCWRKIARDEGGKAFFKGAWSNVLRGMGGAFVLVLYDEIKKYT

[8] = target: Actin-related protein 2 (Homo sapiens, UniProt P61160)
[9] = target: Mitogen-activated protein kinase kinase kinase kinase 1 (Homo sapiens, UniProt Q92918)
[10] = target: Ribosomal protein S6 kinase alpha-5 (Homo sapiens, UniProt O75582)
Note: in the data inactive means no Kd found up to 30 µM.

Sequence of Serine/threonine-protein kinase/endoribonuclease IRE2 (Q76MJ5 whole entry): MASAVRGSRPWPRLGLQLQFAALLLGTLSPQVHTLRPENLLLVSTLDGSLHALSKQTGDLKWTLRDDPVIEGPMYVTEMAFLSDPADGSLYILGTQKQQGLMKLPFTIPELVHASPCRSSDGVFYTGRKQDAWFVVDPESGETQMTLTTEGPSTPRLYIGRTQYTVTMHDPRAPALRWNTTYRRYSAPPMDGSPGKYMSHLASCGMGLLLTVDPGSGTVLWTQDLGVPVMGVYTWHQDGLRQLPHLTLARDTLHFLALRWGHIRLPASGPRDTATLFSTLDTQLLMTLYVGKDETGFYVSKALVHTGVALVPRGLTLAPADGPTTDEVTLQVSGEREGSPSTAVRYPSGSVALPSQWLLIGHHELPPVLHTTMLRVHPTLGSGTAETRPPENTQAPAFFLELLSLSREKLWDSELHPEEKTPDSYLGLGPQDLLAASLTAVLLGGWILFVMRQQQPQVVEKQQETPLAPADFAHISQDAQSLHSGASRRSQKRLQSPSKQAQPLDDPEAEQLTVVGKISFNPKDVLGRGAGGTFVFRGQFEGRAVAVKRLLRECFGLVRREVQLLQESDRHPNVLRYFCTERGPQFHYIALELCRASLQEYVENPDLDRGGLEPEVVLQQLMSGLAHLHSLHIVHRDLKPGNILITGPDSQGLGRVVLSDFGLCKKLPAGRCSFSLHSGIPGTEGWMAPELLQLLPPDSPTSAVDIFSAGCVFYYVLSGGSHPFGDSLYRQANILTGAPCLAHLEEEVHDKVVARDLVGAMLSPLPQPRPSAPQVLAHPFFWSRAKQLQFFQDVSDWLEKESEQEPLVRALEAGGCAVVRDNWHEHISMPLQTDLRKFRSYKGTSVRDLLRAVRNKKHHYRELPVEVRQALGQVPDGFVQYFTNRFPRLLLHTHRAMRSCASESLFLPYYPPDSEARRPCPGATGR
Sequence of Receptor-interacting serine/threonine-protein kinase 3 (Q9Y572 whole entry): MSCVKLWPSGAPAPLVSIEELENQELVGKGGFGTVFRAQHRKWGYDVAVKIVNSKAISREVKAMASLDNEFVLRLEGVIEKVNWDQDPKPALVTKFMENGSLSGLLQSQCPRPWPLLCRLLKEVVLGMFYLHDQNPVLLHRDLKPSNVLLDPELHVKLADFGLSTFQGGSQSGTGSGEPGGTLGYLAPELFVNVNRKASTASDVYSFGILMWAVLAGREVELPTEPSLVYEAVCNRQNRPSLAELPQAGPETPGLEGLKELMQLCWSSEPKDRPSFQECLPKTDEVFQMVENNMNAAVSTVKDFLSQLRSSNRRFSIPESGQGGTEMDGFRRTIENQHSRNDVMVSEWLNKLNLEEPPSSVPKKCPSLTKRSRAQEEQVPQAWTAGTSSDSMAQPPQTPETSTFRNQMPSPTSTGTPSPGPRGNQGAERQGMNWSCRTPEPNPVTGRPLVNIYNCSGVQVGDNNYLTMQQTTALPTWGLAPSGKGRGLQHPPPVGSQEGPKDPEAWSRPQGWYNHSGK
Sequence of Bone morphogenetic protein receptor type-1A (P36894 whole entry): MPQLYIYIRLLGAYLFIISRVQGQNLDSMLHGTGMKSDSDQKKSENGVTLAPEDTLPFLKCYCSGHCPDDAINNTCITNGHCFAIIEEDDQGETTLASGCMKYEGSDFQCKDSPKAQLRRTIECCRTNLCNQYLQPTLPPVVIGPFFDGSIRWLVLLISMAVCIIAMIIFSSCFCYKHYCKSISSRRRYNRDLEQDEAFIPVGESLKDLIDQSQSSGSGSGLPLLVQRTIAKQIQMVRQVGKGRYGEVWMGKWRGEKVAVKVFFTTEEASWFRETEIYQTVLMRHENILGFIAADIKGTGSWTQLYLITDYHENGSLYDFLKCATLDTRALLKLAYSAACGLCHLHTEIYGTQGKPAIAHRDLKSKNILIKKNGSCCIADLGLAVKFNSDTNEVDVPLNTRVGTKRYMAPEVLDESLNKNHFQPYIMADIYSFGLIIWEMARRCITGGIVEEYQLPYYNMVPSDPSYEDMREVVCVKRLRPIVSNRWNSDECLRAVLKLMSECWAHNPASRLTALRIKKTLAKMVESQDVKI
Sequence of Ribosomal protein S6 kinase alpha-5 (O75582 whole entry): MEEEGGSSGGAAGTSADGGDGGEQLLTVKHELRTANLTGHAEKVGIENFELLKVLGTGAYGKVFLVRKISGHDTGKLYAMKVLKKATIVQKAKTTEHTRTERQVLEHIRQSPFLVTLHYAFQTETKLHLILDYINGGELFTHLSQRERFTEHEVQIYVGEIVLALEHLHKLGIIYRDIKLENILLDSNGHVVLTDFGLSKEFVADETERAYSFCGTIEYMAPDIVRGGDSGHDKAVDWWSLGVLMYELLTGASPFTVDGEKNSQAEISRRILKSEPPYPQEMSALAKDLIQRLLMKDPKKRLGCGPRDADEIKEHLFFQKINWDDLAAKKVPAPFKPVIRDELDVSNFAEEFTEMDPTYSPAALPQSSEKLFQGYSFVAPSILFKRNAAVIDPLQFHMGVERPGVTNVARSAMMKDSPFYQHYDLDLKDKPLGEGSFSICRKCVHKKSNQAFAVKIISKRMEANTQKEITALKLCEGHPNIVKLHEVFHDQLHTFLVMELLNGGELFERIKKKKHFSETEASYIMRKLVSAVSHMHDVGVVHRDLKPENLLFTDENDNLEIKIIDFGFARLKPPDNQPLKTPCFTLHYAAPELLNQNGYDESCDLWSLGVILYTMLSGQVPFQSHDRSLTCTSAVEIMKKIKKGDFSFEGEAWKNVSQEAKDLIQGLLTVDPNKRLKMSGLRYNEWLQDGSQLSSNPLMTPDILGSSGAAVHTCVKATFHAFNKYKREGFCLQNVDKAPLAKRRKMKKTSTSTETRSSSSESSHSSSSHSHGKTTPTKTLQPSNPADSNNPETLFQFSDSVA
Sequence of Mitogen-activated protein kinase kinase kinase kinase 1 (Q92918 whole entry): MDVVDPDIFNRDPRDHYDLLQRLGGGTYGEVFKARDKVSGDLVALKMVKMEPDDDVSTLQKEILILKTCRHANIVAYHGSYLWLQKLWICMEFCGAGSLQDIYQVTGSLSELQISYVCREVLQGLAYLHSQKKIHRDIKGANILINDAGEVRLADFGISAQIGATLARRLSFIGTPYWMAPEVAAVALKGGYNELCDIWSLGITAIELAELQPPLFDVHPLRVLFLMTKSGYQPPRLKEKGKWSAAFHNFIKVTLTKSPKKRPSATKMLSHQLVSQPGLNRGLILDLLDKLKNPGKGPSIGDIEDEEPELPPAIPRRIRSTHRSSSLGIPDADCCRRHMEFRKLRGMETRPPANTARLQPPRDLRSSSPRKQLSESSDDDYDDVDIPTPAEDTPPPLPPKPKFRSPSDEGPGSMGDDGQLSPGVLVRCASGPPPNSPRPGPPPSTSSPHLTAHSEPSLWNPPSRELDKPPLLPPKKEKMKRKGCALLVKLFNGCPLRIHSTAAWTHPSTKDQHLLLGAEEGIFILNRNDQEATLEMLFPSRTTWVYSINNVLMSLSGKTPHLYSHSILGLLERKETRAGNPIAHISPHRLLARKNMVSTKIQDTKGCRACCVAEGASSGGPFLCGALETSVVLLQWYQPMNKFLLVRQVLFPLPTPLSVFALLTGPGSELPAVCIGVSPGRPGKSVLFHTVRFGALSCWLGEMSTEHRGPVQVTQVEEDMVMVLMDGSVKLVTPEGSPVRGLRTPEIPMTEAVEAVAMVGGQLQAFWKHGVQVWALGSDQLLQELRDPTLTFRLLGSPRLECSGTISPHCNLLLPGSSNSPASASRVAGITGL
Sequence of Mitogen-activated protein kinase 1 (P28482 whole entry): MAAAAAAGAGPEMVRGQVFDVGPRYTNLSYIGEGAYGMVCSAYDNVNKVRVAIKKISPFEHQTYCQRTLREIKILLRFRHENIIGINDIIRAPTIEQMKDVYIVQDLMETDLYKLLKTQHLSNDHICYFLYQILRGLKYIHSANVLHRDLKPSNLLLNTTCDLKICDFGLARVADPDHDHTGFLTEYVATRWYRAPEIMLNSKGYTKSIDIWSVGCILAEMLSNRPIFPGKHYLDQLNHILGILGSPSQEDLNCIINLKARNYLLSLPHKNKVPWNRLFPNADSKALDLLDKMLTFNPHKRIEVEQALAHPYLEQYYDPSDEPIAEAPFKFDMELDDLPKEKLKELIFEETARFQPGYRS

SMILES | Kd [1] | Kd [2] | Kd [3] | Kd [4] | Kd [5] | Kd [6] | Kd [7] | Kd [8] | Kd [9] | Kd [10]
O=c1[nH]c([C@@H]2CCCN2)nc2c1oc1ccc(Cl)cc12 | > 30 µM (inactive) | > 30 µM (inactive) | > 30 µM (inactive) | > 30 µM (inactive) | > 30 µM (inactive) | > 30 µM (inactive) | > 30 µM (inactive) | > 30 µM (inactive) | > 30 µM (inactive) | > 30 µM (inactive)
CCN1CCN(Cc2ccc(Nc3ncc(F)c(-c4cc(F)c5nc(C)n(C(C)C)c5c4)n3)nc2)CC1 [ABEMACICLIB] | > 30 µM (inactive) | > 30 µM (inactive) | > 30 µM (inactive) | > 30 µM (inactive) | > 30 µM (inactive) | > 30 µM (inactive) | > 30 µM (inactive) | > 30 µM (inactive) | > 30 µM (inactive) | > 30 µM (inactive)
Cc1c(NC(=O)OC[C@@H]2COCCN2)cn2ncnc(Nc3ccc4c(cnn4Cc4cccc(F)c4)c3)c12 [AC-480] | > 30 µM (inactive) | > 30 µM (inactive) | > 30 µM (inactive) | > 30 µM (inactive) | > 30 µM (inactive) | > 30 µM (inactive) | > 30 µM (inactive) | > 30 µM (inactive) | > 30 µM (inactive) | > 30 µM (inactive)
C=CCn1c(=O)c2cnc(Nc3ccc(N4CCN(C)CC4)cc3)nc2n1-c1cccc(C(C)(C)O)n1 [ADAVOSERTIB] | > 30 µM (inactive) | > 30 µM (inactive) | > 30 µM (inactive) | > 30 µM (inactive) | > 30 µM (inactive) | > 30 µM (inactive) | > 30 µM (inactive) | > 30 µM (inactive) | > 30 µM (inactive) | > 30 µM (inactive)
CCc1cc2c(cc1N1CCC(N3CCOCC3)CC1)C(C)(C)c1[nH]c3cc(C#N)ccc3c1C2=O [ALECTINIB] | > 30 µM (inactive) | > 30 µM (inactive) | > 30 µM (inactive) | > 30 µM (inactive) | > 30 µM (inactive) | > 30 µM (inactive) | > 30 µM (inactive) | > 30 µM (inactive) | > 30 µM (inactive) | > 30 µM (inactive)
COc1ccc2c(OCc3nnc4ccc(-c5ccccc5)nn34)ccnc2c1 [AMG-208] | > 30 µM (inactive) | > 30 µM (inactive) | > 30 µM (inactive) | > 30 µM (inactive) | > 30 µM (inactive) | > 30 µM (inactive) | > 30 µM (inactive) | > 30 µM (inactive) | > 30 µM (inactive) | > 30 µM (inactive)
S=C(NCc1ccc2c(c1)OCO2)N1CCN(c2ncnc3c2oc2ccccc23)CC1 [AMUVATINIB] | > 30 µM (inactive) | > 30 µM (inactive) | > 30 µM (inactive) | > 30 µM (inactive) | > 30 µM (inactive) | > 30 µM (inactive) | > 30 µM (inactive) | > 30 µM (inactive) | > 30 µM (inactive) | > 30 µM (inactive)
NC[C@@](O)(c1ccc(Cl)cc1)c1ccc(-c2cn[nH]c2)cc1 [AT-13148] |  | 0.027 µM (active) | > 30 µM (inactive) | > 30 µM (inactive) | > 30 µM (inactive) | > 30 µM (inactive) | > 30 µM (inactive) | > 30 µM (inactive) | > 30 µM (inactive) | > 30 µM (inactive)
COc1ccc(-c2ccc3ncc4c(c3c2)n(-c2ccc(N3CCNCC3)c(C(F)(F)F)c2)c(=O)n4C)cn1 [BGT-226 FREE BASE] | > 30 µM (inactive) | > 30 µM (inactive) | > 30 µM (inactive) | > 30 µM (inactive) | > 30 µM (inactive) | > 30 µM (inactive) | > 30 µM (inactive) | > 30 µM (inactive) | > 30 µM (inactive) | > 30 µM (inactive)
COc1cccc(Nc2ncnn3ccc(CN4CC[C@@H](N)[C@H](O)C4)c23)c1 [BMS-690514] | > 30 µM (inactive) | > 30 µM (inactive) | > 30 µM (inactive) | > 30 µM (inactive) | > 30 µM (inactive) | > 30 µM (inactive) | > 30 µM (inactive) | > 30 µM (inactive) | > 30 µM (inactive) | > 30 µM (inactive)
c1cc(OCCN2CCCCC2)cc(-c2n[nH]c3ccc(-c4nc[nH]n4)cc23)c1 [CC-401] | > 30 µM (inactive) | > 30 µM (inactive) | > 30 µM (inactive) | > 30 µM (inactive) | > 30 µM (inactive) | > 30 µM (inactive) | > 30 µM (inactive) | > 30 µM (inactive) | > 30 µM (inactive) | > 30 µM (inactive)
CC1(COc2ccc3c(c2)ncn3-c2ccc3cccc(N4CCC(N)CC4)c3n2)COC1 [CRENOLANIB] | > 30 µM (inactive) | 2.77 µM (active) | > 30 µM (inactive) | > 30 µM (inactive) | > 30 µM (inactive) | > 30 µM (inactive) | > 30 µM (inactive) | > 30 µM (inactive) | > 30 µM (inactive) | > 30 µM (inactive)
CC[C@@](C)(Nc1ccnc(-c2c[nH]c3ncccc23)n1)C(=O)NCC(F)(F)F [DECERNOTINIB] | > 30 µM (inactive) | > 30 µM (inactive) | > 30 µM (inactive) | > 30 µM (inactive) | > 30 µM (inactive) | > 30 µM (inactive) | > 30 µM (inactive) |  | > 30 µM (inactive) | > 30 µM (inactive)
CNC(=O)c1ccc(Nc2ncc(C(F)(F)F)c(NCc3nccnc3N(C)S(C)(=O)=O)n2)cc1 [DEFACTINIB] | > 30 µM (inactive) | 9.05 µM (active) | > 30 µM (inactive) | 0.622 µM (active) | > 30 µM (inactive) | > 30 µM (inactive) | > 30 µM (inactive) |  | 3.13 µM (active) | > 30 µM (inactive)
COc1cc2ncnc3c2cc1OCCCCCN(C)Cc1ccc(Br)cc1N3 [JNJ-26483327] | > 30 µM (inactive) | > 30 µM (inactive) | > 30 µM (inactive) | > 30 µM (inactive) | > 30 µM (inactive) | > 30 µM (inactive) | > 30 µM (inactive) |  | > 30 µM (inactive) | > 30 µM (inactive)
COc1cc(F)c(F)c(Nc2ccc(I)cc2F)c1NS(=O)(=O)C1(C[C@H](O)CO)CC1 [REFAMETINIB] | > 30 µM (inactive) | > 30 µM (inactive) | > 30 µM (inactive) | > 30 µM (inactive) | > 30 µM (inactive) | > 30 µM (inactive) | > 30 µM (inactive) |  | > 30 µM (inactive) | > 30 µM (inactive)
C=CCN(/C=C1/C(=O)O[C@H](COC)[C@@]2(C)C1=C(O)C(=O)C1=C2[C@H](OC(C)=O)C[C@]2(C)C(=O)CC[C@@H]12)CC=C [SONOLISIB] | > 30 µM (inactive) | > 30 µM (inactive) | > 30 µM (inactive) | > 30 µM (inactive) | > 30 µM (inactive) | > 30 µM (inactive) | > 30 µM (inactive) |  | > 30 µM (inactive) | > 30 µM (inactive)
